From patent publication EP0538689A1, “Substituted 2,3-dihydropyrans, method for their preparation and their use as medicaments” (BAYER AG, priority 1991, dated 1993)
Structures can show the parent of a compound that is named as a salt.

Test system: C. albicans
Assay: Mouse candidosis model, antimycotic in vivo efficacy
Parameters: species or system Männliche CF₁-SPF-Mäuse
Details: mice infected i.v. with 1-3 x 10⁶ Sprosszellen von C. albicans, surviving/total animals
Procedure: Die erfindungsgemäßen Verbindungen wurden in den Applikationsarten i.v., s.c. und orale Gabe am Modell der Mäuse-Candidose auf ihre antimykotische in vivo-Wirksamkeit geprüft: Männliche CF₁-SPF-Mäuse wurden mit 1-3 x 10⁶ Sprosszellen von C. albicans pro Tier durch Injektion der Keimsuspension in phys. NaCl-Lösung (0,2 ml/Tier) in die Schwanzvene infiziert. Nicht behandelte Kontrolltiere entwickeln unter diesen Infektionsbedingungen eine Nierencandidose und sterben zu 95-100% der eingesetzten Tiere innerhalb 6 Tagen p.i. an dieser Infektion. Wurden infizierte Tiere täglich 2 mal, beginnend mit dem Tag der Infektion, mit den erfindungsgemäßen Verbindungen oral oder parenteral in Dosen 2 x 25 bis 2 x 50 mg/kg Körpergewicht über 2 - 5 Tage behandelt, so überleben 60-90% der Tiere die Infektion in gutem Zustand. Die C.albicans-Keimzahlen in den Nieren der infizierten und behandelten Tiere liegen am 4. Tag p.i. durchschnittlich um 2 Zehnerpotenzen unter denen von unbehandelten, infizierten Kontrolltieren. Tabelle A

COC(=O)[C@H]1OCC=C[C@H]1N [Beispiel 1, (2S,3R)-3-Amino-2,3-dihydro-6H-pyran-2-carbonsäuremethylester Hydrochlorid]
Zahl der überl. Tiere (Dosis 2 × 50 mg/kg/d, App. po): 7/10

N[C@H]1C=CCO[C@H]1C(=O)O [Beispiel 17, (2R,3S)-3-Amino-2,3-dihydro-6H-pyran-2-carbonsäure-hydrochlorid]
Zahl der überl. Tiere (Dosis 2 × 25 mg/kg/d, App. sc): 3/10

COC(=O)[C@H]1OCC=C[C@H]1NC(=O)OC(C)(C)C [Beispiel VII]
Zahl der überl. Tiere (Dosis 2 × 50 mg/kg/d, App. po): 8/10
